Patent publication US10167262B2, “Herbicidal substituted 3-arylpyrazoles” (FMC CORPORATION, priority 2014, dated 2019)

Key:
Assay in all cases: Test C postemergence greenhouse test, plant response rating 0-100
Format in all cases: in vivo
[1] = tested on: bermudagrass (Cynodon dactylon); conditions: for Plant response rating, Bermudagrass: 250 g ai/ha, scale 0 to 100
Summary of the method: (§1)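 Scores run from 0, meaning no effect, to 100, meaning complete control, and come from visual comparison with untreated controls. Treatment was a postemergence application to plants 2–18 cm tall. Assessment followed 13 to 15 days of greenhouse growth.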

[2] = tested on: cocklebur (common cocklebur, Xanthium strumarium); conditions: for Plant response rating, Cocklebur: 250 g ai/ha, scale 0 to 100
Summary of the method: as §1

[3] = tested on: canarygrass (Phalaris minor); conditions: for Plant response rating, Canarygrass: 250 g ai/ha, scale 0 to 100
Summary of the method: as §1

[4] = tested on: woolly cupgrass (Eriochloa villosa); conditions: for Plant response rating, Cupgrass, Woolly: 250 g ai/ha, scale 0 to 100
Summary of the method: as §1

[5] = tested on: goosegrass (Eleusine indica); conditions: for Plant response rating, Goosegrass: 250 g ai/ha, scale 0 to 100
Summary of the method: as §1

[6] = tested on: surinam grass (Brachiaria decumbens); conditions: for Plant response rating, Surinam Grass: 250 g ai/ha, scale 0 to 100
Summary of the method: as §1

[7] = tested on: deadnettle (henbit deadnettle, Lamium amplexicaule); conditions: for Plant response rating, Deadnettle: 250 g ai/ha, scale 0 to 100
Summary of the method: as §1

[8] = tested on: winter barley (Hordeum vulgare); conditions: for Plant response rating, Barley: 250 g ai/ha, scale 0 to 100
Summary of the method: as §1

[9] = tested on: downy bromegrass (Bromus tectorum); conditions: for Plant response rating, Bromegrass, Downy: 250 g ai/ha, scale 0 to 100
Summary of the method: as §1

[10] = tested on: green foxtail (Setaria viridis); conditions: for Plant response rating, Foxtail, Green: 250 g ai/ha, scale 0 to 100
Summary of the method: as §1

[11] = tested on: windgrass (Apera spica-venti); conditions: for Plant response rating, Windgrass: 250 g ai/ha, scale 0 to 100
Summary of the method: as §1

`CCn1cc(C(=O)c2ccccc2)c(-c2cc(Br)cc(Br)c2)n1` [Compound 38] was tested, and the “Plant response rating (0 to 100), Bermudagrass” value ([1]; 31 g ai/ha) was 0, the “Plant response rating (0 to 100), Bermudagrass” value ([1]; 62 g ai/ha) was 0 and the “Plant response rating (0 to 100), Bermudagrass” value ([1]; 125 g ai/ha) was 0. For the same compound, the “Plant response rating, Bermudagrass” value [1] was 0, the “Plant response rating (0 to 100), Cocklebur” value ([2]; 31 g ai/ha) was 5 and the “Plant response rating (0 to 100), Cocklebur” value ([2]; 62 g ai/ha) was 10. For the same compound, the “Plant response rating (0 to 100), Cocklebur” value ([2]; 125 g ai/ha) was 15, the “Plant response rating, Cocklebur” value [2] was 15 and the “Plant response rating (0 to 100), Canarygrass” value ([3]; 31 g ai/ha) was 0. For the same compound, the “Plant response rating (0 to 100), Canarygrass” value ([3]; 62 g ai/ha) was 0, the “Plant response rating (0 to 100), Canarygrass” value ([3]; 125 g ai/ha) was 0 and the “Plant response rating, Canarygrass” value [3] was 5. For the same compound, the “Plant response rating (0 to 100), Cupgrass, Woolly” value ([4]; 31 g ai/ha) was 0, the “Plant response rating (0 to 100), Cupgrass, Woolly” value ([4]; 62 g ai/ha) was 0 and the “Plant response rating (0 to 100), Cupgrass, Woolly” value ([4]; 125 g ai/ha) was 0. The “Plant response rating, Cupgrass, Woolly” value [4] was 0, the “Plant response rating (0 to 100), Goosegrass” value ([5]; 31 g ai/ha) was 0 and the “Plant response rating (0 to 100), Goosegrass” value ([5]; 62 g ai/ha) was 0. For the same compound, the “Plant response rating (0 to 100), Goosegrass” value ([5]; 125 g ai/ha) was 0, the “Plant response rating, Goosegrass” value [5] was 0 and the “Plant response rating (0 to 100), Surinam Grass” value ([6]; 62 g ai/ha) was 0. For the same compound, the “Plant response rating (0 to 100), Surinam Grass” value ([6]; 125 g ai/ha) was 0, the “Plant response rating, Surinam Grass” value [6] was 0 and the “Plant response rating (0 to 100), Deadnettle” value ([7]; 31 g ai/ha) was 0. The “Plant response rating (0 to 100), Deadnettle” value ([7]; 62 g ai/ha) was 0, the “Plant response rating (0 to 100), Deadnettle” value ([7]; 125 g ai/ha) was 0 and the “Plant response rating, Deadnettle” value [7] was 5. For the same compound, the “Plant response rating (0 to 100), Barley” value ([8]; 31 g ai/ha) was 0, the “Plant response rating (0 to 100), Barley” value ([8]; 62 g ai/ha) was 0 and the “Plant response rating (0 to 100), Barley” value ([8]; 125 g ai/ha) was 0. For the same compound, the “Plant response rating, Barley” value [8] was 0, the “Plant response rating (0 to 100), Bromegrass, Downy” value ([9]; 31 g ai/ha) was 0 and the “Plant response rating (0 to 100), Bromegrass, Downy” value ([9]; 62 g ai/ha) was 0. The “Plant response rating (0 to 100), Bromegrass, Downy” value ([9]; 125 g ai/ha) was 0, the “Plant response rating, Bromegrass, Downy” value [9] was 0 and the “Plant response rating (0 to 100), Foxtail, Green” value ([10]; 31 g ai/ha) was 0. The “Plant response rating (0 to 100), Foxtail, Green” value ([10]; 62 g ai/ha) was 0, the “Plant response rating (0 to 100), Foxtail, Green” value ([10]; 125 g ai/ha) was 0 and the “Plant response rating, Foxtail, Green” value [10] was 5. The “Plant response rating (0 to 100), Windgrass” value ([11]; 62 g ai/ha) was 0, the “Plant response rating (0 to 100), Windgrass” value ([11]; 125 g ai/ha) was 0 and the “Plant response rating, Windgrass” value [11] was 0.

With `CC(C)n1cc(C(=O)c2ccccc2)c(-c2cc(Cl)cc(Cl)c2)n1` [Compound 44] the “Plant response rating (0 to 100), Bermudagrass” value ([1]; 31 g ai/ha) was 0, the “Plant response rating (0 to 100), Bermudagrass” value ([1]; 62 g ai/ha) was 0 and the “Plant response rating (0 to 100), Bermudagrass” value ([1]; 125 g ai/ha) was 0. The “Plant response rating, Bermudagrass” value [1] was 0, the “Plant response rating (0 to 100), Cocklebur” value ([2]; 31 g ai/ha) was 0 and the “Plant response rating (0 to 100), Cocklebur” value ([2]; 62 g ai/ha) was 0. The “Plant response rating (0 to 100), Cocklebur” value ([2]; 125 g ai/ha) was 10, the “Plant response rating, Cocklebur” value [2] was 30 and the “Plant response rating (0 to 100), Canarygrass” value ([3]; 31 g ai/ha) was 0. For the same compound, the “Plant response rating (0 to 100), Canarygrass” value ([3]; 62 g ai/ha) was 0, the “Plant response rating (0 to 100), Canarygrass” value ([3]; 125 g ai/ha) was 0 and the “Plant response rating, Canarygrass” value [3] was 0. For the same compound, the “Plant response rating (0 to 100), Cupgrass, Woolly” value ([4]; 31 g ai/ha) was 0, the “Plant response rating (0 to 100), Cupgrass, Woolly” value ([4]; 62 g ai/ha) was 5 and the “Plant response rating (0 to 100), Cupgrass, Woolly” value ([4]; 125 g ai/ha) was 5. For the same compound, the “Plant response rating, Cupgrass, Woolly” value [4] was 5, the “Plant response rating (0 to 100), Goosegrass” value ([5]; 31 g ai/ha) was 0 and the “Plant response rating (0 to 100), Goosegrass” value ([5]; 62 g ai/ha) was 0. For the same compound, the “Plant response rating (0 to 100), Goosegrass” value ([5]; 125 g ai/ha) was 0, the “Plant response rating, Goosegrass” value [5] was 0 and the “Plant response rating (0 to 100), Surinam Grass” value ([6]; 62 g ai/ha) was 0. The “Plant response rating (0 to 100), Surinam Grass” value ([6]; 125 g ai/ha) was 0, the “Plant response rating, Surinam Grass” value [6] was 0 and the “Plant response rating (0 to 100), Deadnettle” value ([7]; 31 g ai/ha) was 0. For the same compound, the “Plant response rating (0 to 100), Deadnettle” value ([7]; 62 g ai/ha) was 0, the “Plant response rating (0 to 100), Deadnettle” value ([7]; 125 g ai/ha) was 0 and the “Plant response rating, Deadnettle” value [7] was 0. For the same compound, the “Plant response rating (0 to 100), Barley” value ([8]; 31 g ai/ha) was 0, the “Plant response rating (0 to 100), Barley” value ([8]; 62 g ai/ha) was 0 and the “Plant response rating (0 to 100), Barley” value ([8]; 125 g ai/ha) was 0. The “Plant response rating, Barley” value [8] was 0, the “Plant response rating (0 to 100), Bromegrass, Downy” value ([9]; 31 g ai/ha) was 0 and the “Plant response rating (0 to 100), Bromegrass, Downy” value ([9]; 62 g ai/ha) was 0. For the same compound, the “Plant response rating (0 to 100), Bromegrass, Downy” value ([9]; 125 g ai/ha) was 0, the “Plant response rating, Bromegrass, Downy” value [9] was 0 and the “Plant response rating (0 to 100), Foxtail, Green” value ([10]; 31 g ai/ha) was 0. The “Plant response rating (0 to 100), Foxtail, Green” value ([10]; 62 g ai/ha) was 0, the “Plant response rating (0 to 100), Foxtail, Green” value ([10]; 125 g ai/ha) was 0 and the “Plant response rating, Foxtail, Green” value [10] was 0. The “Plant response rating (0 to 100), Windgrass” value ([11]; 62 g ai/ha) was 0, the “Plant response rating (0 to 100), Windgrass” value ([11]; 125 g ai/ha) was 0 and the “Plant response rating, Windgrass” value [11] was 0.

With `ON=C(c1ccccc1)c1c[nH]nc1-c1cc(Cl)cc(Cl)c1` [Compound 50] the “Plant response rating (0 to 100), Bermudagrass” value ([1]; 31 g ai/ha) was 0, the “Plant response rating (0 to 100), Bermudagrass” value ([1]; 62 g ai/ha) was 0 and the “Plant response rating (0 to 100), Bermudagrass” value ([1]; 125 g ai/ha) was 0. The “Plant response rating, Bermudagrass” value [1] was 0, the “Plant response rating (0 to 100), Cocklebur” value ([2]; 31 g ai/ha) was 5 and the “Plant response rating (0 to 100), Cocklebur” value ([2]; 62 g ai/ha) was 15. For the same compound, the “Plant response rating (0 to 100), Cocklebur” value ([2]; 125 g ai/ha) was 55, the “Plant response rating, Cocklebur” value [2] was 90 and the “Plant response rating (0 to 100), Canarygrass” value ([3]; 31 g ai/ha) was 0. The “Plant response rating (0 to 100), Canarygrass” value ([3]; 62 g ai/ha) was 0, the “Plant response rating (0 to 100), Canarygrass” value ([3]; 125 g ai/ha) was 0 and the “Plant response rating, Canarygrass” value [3] was 0. For the same compound, the “Plant response rating (0 to 100), Cupgrass, Woolly” value ([4]; 31 g ai/ha) was 0, the “Plant response rating (0 to 100), Cupgrass, Woolly” value ([4]; 62 g ai/ha) was 0 and the “Plant response rating (0 to 100), Cupgrass, Woolly” value ([4]; 125 g ai/ha) was 0. For the same compound, the “Plant response rating, Cupgrass, Woolly” value [4] was 0, the “Plant response rating (0 to 100), Goosegrass” value ([5]; 31 g ai/ha) was 0 and the “Plant response rating (0 to 100), Goosegrass” value ([5]; 62 g ai/ha) was 0. The “Plant response rating (0 to 100), Goosegrass” value ([5]; 125 g ai/ha) was 0, the “Plant response rating, Goosegrass” value [5] was 0 and the “Plant response rating (0 to 100), Surinam Grass” value ([6]; 62 g ai/ha) was 0. The “Plant response rating (0 to 100), Surinam Grass” value ([6]; 125 g ai/ha) was 0, the “Plant response rating, Surinam Grass” value [6] was 0 and the “Plant response rating (0 to 100), Deadnettle” value ([7]; 31 g ai/ha) was 0. For the same compound, the “Plant response rating (0 to 100), Deadnettle” value ([7]; 62 g ai/ha) was 0, the “Plant response rating (0 to 100), Deadnettle” value ([7]; 125 g ai/ha) was 0 and the “Plant response rating, Deadnettle” value [7] was 40. The “Plant response rating (0 to 100), Barley” value ([8]; 31 g ai/ha) was 0, the “Plant response rating (0 to 100), Barley” value ([8]; 62 g ai/ha) was 0 and the “Plant response rating (0 to 100), Barley” value ([8]; 125 g ai/ha) was 0. For the same compound, the “Plant response rating, Barley” value [8] was 0, the “Plant response rating (0 to 100), Bromegrass, Downy” value ([9]; 31 g ai/ha) was 0 and the “Plant response rating (0 to 100), Bromegrass, Downy” value ([9]; 62 g ai/ha) was 0. For the same compound, the “Plant response rating (0 to 100), Bromegrass, Downy” value ([9]; 125 g ai/ha) was 0, the “Plant response rating, Bromegrass, Downy” value [9] was 0 and the “Plant response rating (0 to 100), Foxtail, Green” value ([10]; 31 g ai/ha) was 0. The “Plant response rating (0 to 100), Foxtail, Green” value ([10]; 62 g ai/ha) was 0, the “Plant response rating (0 to 100), Foxtail, Green” value ([10]; 125 g ai/ha) was 0 and the “Plant response rating, Foxtail, Green” value [10] was 0. For the same compound, the “Plant response rating (0 to 100), Windgrass” value ([11]; 62 g ai/ha) was 0, the “Plant response rating (0 to 100), Windgrass” value ([11]; 125 g ai/ha) was 0 and the “Plant response rating, Windgrass” value [11] was 0.
